Columns and labels:
Type in all cases: cell-based
[1] = test system: Bacillus strain secreting inactive 10R protease (S143A) (SOL218); assay: Plate growth of Bacillus secreting inactive 10R protease on LB agar with MGMM and CMA; conditions: LB agar with MGMM, 37° C. overnight
Description: (§1) We wanted to find a concentration of carboxymethoxylhydroxylamine (CMA) that allows only protease-secreting Bacillus colonies to grow in the presence of the small peptide met-gly-met-met (MGMM). CMA inhibits the methionine synthesis in Bacillus cells, which severely hampers their growth. However, in the presence of MGMM, protease-secreting Bacillus cells can grow on CMA containing media. Secreted proteases degrade the MGMM peptide thereby releasing free methionine residues, which are taken up by the protese-secreting Bacillus cells and used for protein synthesis.
(§2) 500 ml LB agar was melted and placed in an incubator until the agar reached 60° C. 5 ml met-gly-met-met (MGMM, Sigma M4786-250MG) (5 mg/ml) and 300 microliter 1% chloramphenicol (in 70% ethanol) was added to the agar.
(§3) 4×25 ml media was transferred with a 25 ml Stripette™ to clean 25 ml Nunc™ containers. Different amounts of CMA (Aldrich C13408-1 g) were added to the media as indicated in the scheme below. All 25 ml media was poured into 9 cm petri dishes and dried in a clean bench; except for the “6×CMA on the plate” where 25 ml media was poured on a 9 cm petridish and dried and 600 microliter CMA (0.56 mg/ml) was spread on the plate afterwards.
(§4) The two micro-organisms were streaked on the 6 different types of plates. All plates were incubated upside down at 37° C. overnight.

[2] = test system: Bacillus strain secreting a wildtype protease denoted '10R' (SOL000); assay: Plate growth of Bacillus secreting wildtype 10R protease on LB agar with MGMM and CMA; conditions: for Growth on the plate, 10R WT (SOL000): LB agar with MGMM, 37° C. overnight
Description: as §1, §2, §3, §4

[3] = test system: Saccharomyces cerevisiae JG 169; assay: Yeast growth on triglyceride (olive oil) plates containing cerulenin; conditions: 5 mg cerulenin per approx. 510 ml SC-ura agar with olive oil; pENI4158 (lipase) vs pENI3659 (control) transformants
Procedure: Plasmids pENI3659 (control) and pENi4158 (with lipase gene) were transformed into the yeast strain Saccharomyces cerevisiae JG 169 (MAT-alpha; ura 3-52; leu 2-3, 112; his 3-D200; pep 4-113; prc1::HIS3; prb1::LEU2). The transformed yeast was streaked onto plates containing cerulenine and olive oil.
To 450 ml SC-ura-basic agar was added 50 ml 20% glucose and 10 ml olive oil. An UltraTurax™ […] (IKA Labortechnik, Germany) was used to disperse the olive oil. 5 mg cerulenin dissolve in 1 ml ethanol was added and 500 microliter ampicillin (100 mg/ml)). This mix was poured into […] 9 cm petri dishes.
SC-ura-basic agar: 7.5 g Yeast Nitrogen Base without amino acids, 11.3 g Bernstein, 6.8 g NaOH, 5.6 g casamino acids, 0.1 g L-tryptophan, 20 g agar in total of 900 ml water.

[4] = 5xCMA in the plate, 11.2 mg/L CMA
[5] = 6xCMA in the plate, 13.4 mg/L CMA
[6] = 6xCMA on the plate (spread on dried plate), 13.4 mg/L CMA
[7] = 7xCMA in the plate, 15.7 mg/L CMA
[8] = 8xCMA in the plate, 17.9 mg/L CMA

Structure (SMILES) | Growth on the plate, 10R inactive (SOL218) [1, 4] | Growth on the plate, 10R inactive (SOL218) [1, 5] | Growth on the plate, 10R inactive (SOL218) [1, 6] | Growth on the plate, 10R inactive (SOL218) [1, 7] | Growth on the plate, 10R inactive (SOL218) [1, 8] | Growth on the plate, 10R WT (SOL000) [2, 4] | Growth on the plate, 10R WT (SOL000) [2, 5] | Growth on the plate, 10R WT (SOL000) [2, 6] | Growth on the plate, 10R WT (SOL000) [2, 7] | Growth on the plate, 10R WT (SOL000) [2, 8] | Growth of Bacillus transformant cells which secrete active 10R protease, versus those that do not ([2]; LB agar with 11.2 mg/L CMA as well as MGMM in the plate, summary of Table 3) | Growth of transformed yeast on the triglyceride plates in the presence of cerulinine [3]
O=C(O)CONO [CMA, carboxymethoxylhydroxylamine] | No | No | No | No | No | Yes | No | No | No | No | only those can grow | 
C/C=C/C/C=C/CCC(=O)[C@H]1O[C@H]1C(N)=O [cerulinine, cerulenin] |  |  |  |  |  |  |  |  |  |  |  | Only yeast cells transformed with pENI4158, which express active lipase, were able to grow
